Measured values taken from patent US20200277373A1, “ANTI-TREM2 ANTIBODIES AND METHODS OF USE THEREOF” (Denali Therapeutics Inc., priority 2017, published 2020).

Columns and labels:
Assay type in all cases: cell-based
DAP12 alone = target: T1, DAP12 alone (Homo sapiens, UniProt O43914); test: Liposome stimulation pSyk AlphaLISA, HEK293 expressing DAP12 alone; conditions: liposomes 30% lipid/70% PC (KLA 10%/90%), fold change over HBSS
T1 construct: expressed in transfected cells
Method: (§1) Lipids were purchased from Avanti Polar Lipids (Alabaster, Ala.) or Echelon Biosciences (Salt Lake City, Utah). Each screened lipid was resuspended in chloroform and added at 30 mole percent composition to 70 mole percent phosphatidylcholine (PC; 1,2-dioleoyl-sn-glycero-3-phosphocholine, Avanti Polar Lipids). Kdo2-Lipid A was added at a 10 mole percent composition with 90 mole percent PC. Lipid mixes were dried under nitrogen gas and resuspended in HBSS at a concentration of 4 mg/mL. Mixes were vortexed or briefly sonicated until resuspended, then bath sonicated for 1-5 minutes. Liposomes were used for 1-2 weeks. 3 independent batches of liposomes were used in experiments.
(§2) HEK293 cell lines overexpressing TREM2 and DAP12, mutant TREM2-R47H and DAP12, or DAP12 alone were plated in 96-well PDL-coated plates at a density of 40,000 cells per well and cultured for 36-48 hours until 90-100% confluent.
(§3) Cell culture medium was removed and cells were washed once with 200ul HBSS. Liposomes were diluted in HBSS in concentrations ranging from 0.03125 mg/mL to 2 mg/mL, then 50 μl was added to wells in 2-3 technical replicates per plate. Each plate contained HBSS negative control wells, 100% PC liposome control, 5 μg/mL agonist anti-TREM2 positive control (Abnova; Taiwan; # MAB2056), and 5 μg/mL mouse IgG3 isotype control (R&D Systems; Minneapolis, Minn.; # MAB007). Stimuli were incubated with cells for 5 minutes at 37° C., 5% CO2, liposomes were removed, and plates were frozen at −80° C.
(§4) Cells were lysed for 30 minutes to 1 hour on ice in 50 ul/well Cell Lysis Buffer (Cell Signaling Technology; Danvers, Mass.; #9803) with 1 mM PMSF. AlphaLISA SureFire Ultra p-Syk Tyr525/526 assay kit (PerkinElmer, ALSU-PSYK-A10OK) was used to measure pSyk levels in lysate as per manufacturer protocol. 10 μl lysate was added to 384-well OptiPlates (PerkinElmer; #6007290) and an EnVision Multilabel Plate Reader (PerkinElmer) was used to measure AlphaLISA fluorescence.
(§5) PSyk AlphaLISA fluorescence was converted to a log 2 scale. Fluorescence values from liposomes and controls were each subtracted from average fluorescence values from HBSS stimulated wells on the same plate (log 2(liposome)−log 2(HBSSave)=log 2(signal)). The result was converted back to a standard scale to measure fold change (2^log 2(signal)=fold change). Technical replicate fold changes values were averaged to obtain the fold change over background listed (pSyk FOB). Graphs represent values from independent experiments or individual human donors. Results from the screen on the HEK293 overexpressing cell lines are shown in Table 9 below and in FIG. 8A-8B. HEK293 results showing specificity for TREM2 over DAP12 expressed alone can be used to extrapolate which lipid species are likely acting as TREM2 ligands on human macrophages.

R47H TREM2 mutant = target: T2, R47H TREM2 mutant (Homo sapiens, UniProt Q9NZC2, R47H); test: Liposome stimulation pSyk AlphaLISA, HEK293 overexpressing TREM2-R47H and DAP12; conditions: liposomes 30% lipid/70% PC (KLA 10%/90%), fold change over HBSS
T2 construct: expressed in transfected cells
Method: as §1, §2, §3, §4, §5

TREM2 = target: T3, TREM2 (Homo sapiens, UniProt Q9NZC2); test: Liposome stimulation pSyk AlphaLISA, HEK293 overexpressing TREM2 and DAP12; conditions: liposomes 30% lipid/70% PC (KLA 10%/90%), fold change over HBSS
T3 construct: expressed in transfected cells
Method: as §1, §2, §3, §4, §5

[1] = tested on: primary human macrophages; test: Liposome stimulation pSyk AlphaLISA, primary human macrophages; conditions: liposomes 30% lipid/70% PC (KLA 10%/90%)
Method: as §1
10 mL human blood was obtained from Blood Centers of the Pacific. Monocytes were extracted using RosetteSep Human Monocyte Enrichment Cocktail ([…] Technologies Inc.; Vancouver, BC; #15068) as per manufacturer protocols. Density gradient was performed with Ficoll-Paque Premium (GE Healthcare Life Sciences; Pittsburgh, Pa.; #17-5442-02). Isolated monocytes were resuspended at ˜1-1.3 million cells/mL and cultured for 5-6 days in RPMI, 10% Hyclone Fetal Bovine Serum, and penicillin/streptomycin supplemented with 50 ng/mL human M-CSF (Gibco, # PHC9501) in T175 tissue culture treated flasks. M-CSF was replenished every 2-3 days. Cells were washed once with PBS, 15 mL fresh medium was added, and cells were harvested by scraping. Cells were cultured overnight at a density of 100,000 cells per well on tissue culture treated 96-well plates supplemented with 10-25 ng/mL M-CSF.
as §3, §4, §5

T3 sequence (Q9NZC2 19-230): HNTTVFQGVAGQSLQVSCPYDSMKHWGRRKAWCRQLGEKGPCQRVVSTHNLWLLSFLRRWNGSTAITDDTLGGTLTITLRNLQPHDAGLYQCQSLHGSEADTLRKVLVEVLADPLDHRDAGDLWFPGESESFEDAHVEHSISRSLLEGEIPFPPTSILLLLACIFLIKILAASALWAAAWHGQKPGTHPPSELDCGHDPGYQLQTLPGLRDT
T3 sequence (O43914 22-113 partner): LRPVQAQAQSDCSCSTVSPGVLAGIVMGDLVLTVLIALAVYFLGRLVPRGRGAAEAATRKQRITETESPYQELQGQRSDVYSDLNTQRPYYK
T2 sequence (Q9NZC2 19-230 R47H): as the sequence (Q9NZC2 19-230) above, with R29H counted along it
T2 sequence (O43914 22-113 partner): as the sequence (O43914 22-113 partner) above
T1 sequence (O43914 22-113): as the sequence (O43914 22-113 partner) above

Row | Compound | DAP12 alone (pSyk FOB) (DAP12 alone) [FOB] | R47H TREM2 mutant (pSyk FOB) (R47H TREM2 mutant) [FOB] | Human TREM2 (pSyk FOB) (TREM2) [FOB] | pSyk FOB [1] [FOB]
1 | CCCCCCCC/C=C\CCCCCCCC(=O)OC[C@H](COP(=O)([O-])OCC[N+](C)(C)C)OC(=O)CCCCCCC/C=C\CCCCCCCC [100% Phosphatidylcholine (PC), 1,2-dioleoyl-sn-glycero-3-phosphocholine, reference compound] | 0.86 | 2.27 | 2.01 | 1.18
2 | CCCCCCCCCCCCCC(=O)O[C@H](CCCCCCCCCCC)CC(=O)O[C@@H]1[C@@H](NC(=O)C[C@@H](CCCCCCCCCCC)OC(=O)CCCCCCCCCCC)[C@H](OC[C@H]2O[C@H](OP(=O)(O)O)[C@H](NC(=O)C[C@H](O)CCCCCCCCCCC)[C@@H](OC(=O)C[C@H](O)CCCCCCCCCCC)[C@@H]2O)O[C@H](CO[C@]2(C(=O)O)C[C@@H](O[C@]3(C(=O)O)C[C@@H](O)[C@@H](O)[C@@H]([C@H](O)CO)O3)[C@@H](O)[C@@H]([C@H](O)CO)O2)[C@H]1OP(=O)(O)O [Kdo2-Lipid A (KLA), Kdo2-Lipid A] | 1.25 | 6.65 | 5.15 | 2.73
3 | Ceramide | 1.30 | 2.21 | 2.20 | 1.44
4 | CC(C)CCC[C@@H](C)[C@H]1CC[C@H]2[C@@H]3CC=C4C[C@@H](OP(=O)(O)O)CC[C@]4(C)[C@H]3CC[C@]12C [Cholesterol phosphate (CP), Cholesterol phosphate] | 1.27 | 3.09 | 2.43 | 1.18
5 | CCCCCCCCCCCCC/C=C/[C@@H](O)[C@@H](N)CO[C@@H]1O[C@H](CO)[C@@H](O)[C@H](O)[C@H]1O [Glucosyl sphingosine (GlcSo), Glucosyl sphingosine] | 1.31 | 1.27 | 1.34 | 2.05
